Patent US20130040935A1, “CYCLIC KETO-ENOLS FOR THERAPY” (BAYER INTELLECTUAL PROPERTY GMBH, priority 2010, published 2013)

The compounds below were run against T1, human ACC1 (acetyl-coenzyme A carboxylase alpha transcript variant 1) (Homo sapiens, UniProt Q13085) (assay: Human ACC1 enzyme assay, Assay B1 (ADP-Glo)). Settings: not given.
T1 construct: FLAG (C); made in house; host or cells: baculovirus-infected insect cells (Hi5)
Type: biochemical

SMILES	IC50 [nM]
Cc1ccc(-c2ccc(C)c(C3=C(O)C4(CCCOC4)NC3=O)c2)cc1 (stereo not drawn) [1-14, 3-(4,4′-dimethylbiphenyl-3-yl)-4-hydroxy-7-oxa-1-azaspiro[4.5]dec-3-en-2-one]	3070
Cc1ccc(-c2ccc(Cl)cc2)cc1C1=C(O)CN(C)C1=O [1-16, 3-(4′-chloro-4-methylbiphenyl-3-yl)-4-hydroxy-1-methyl-1,5-dihydro-2H-pyrrol-2-one]	241
Cc1ccc(-c2cc(F)c(F)c(F)c2)cc1C1=C(O)C2(CCOCC2)NC1=O [1-36, 4-hydroxy-3-(3′,4′,5′-trifluoro-4-methylbiphenyl-3-yl)-8-oxa-1-azaspiro[4.5]dec-3-en-2-one]	1500
CO[C@H]1CC[C@]2(CC1)NC(=O)C(c1cc(-c3ccc(F)cc3)ccc1Cl)=C2O [1-44, (5s,8s)-3-(4-chloro-4′-fluorobiphenyl-3-yl)-4-hydroxy-8-methoxy-1-azaspiro[4.5]dec-3-en-2-one]	1700
CC1OC2(CCC3(CC2)NC(=O)C(c2cc(-c4ccc(Cl)cc4)ccc2Cl)=C3O)OC1C (stereo not drawn) [1-71, 11-(4,4′-dichlorobiphenyl-3-yl)-12-hydroxy-2,3-dimethyl-1,4-dioxa-9-azadispiro[4.2.4.2]tetradec-11-en-10-one]	912
CCOC1CCC2(CC1)NC(=O)C(c1cc(-c3cccc(Cl)c3)ccc1C)=C2O (stereo not drawn) [1-79, 3-(3′-chloro-4-methylbiphenyl-3-yl)-8-ethoxy-4-hydroxy-1-azaspiro[4.5]dec-3-en-2-one]	2320
COC1CCC2(CC1)NC(=O)C(c1cc(-c3cc(F)ccc3F)ccc1C)=C2O (stereo not drawn) [1-80, 3-(2′,5′-difluoro-4-methylbiphenyl-3-yl)-4-hydroxy-8-methoxy-1-azaspiro[4.5]dec-3-en-2-one]	2180
Cc1ccc(-c2ccc(Cl)cc2)cc1C1=C(O)C2(CCCOC2)OC1=O (stereo not drawn) [2-9, 3-(4′-chloro-4-methylbiphenyl-3-yl)-4-hydroxy-1,7-dioxaspiro[4.5]dec-3-en-2-one]	2220
COC1CCCC2(C1)OC(=O)C(c1cc(-c3ccc(Cl)cc3)ccc1Cl)=C2O (stereo not drawn) [2-13, 3-(4,4′-dichlorobiphenyl-3-yl)-4-hydroxy-7-methoxy-1-oxaspiro[4.5]dec-3-en-2-one]	1020
Cc1ccc(-c2ccc(F)cc2)cc1C1=C(O)C2(CCCCC2)OC1=O [2-21, 3-(4′-fluoro-4-methylbiphenyl-3-yl)-4-hydroxy-1-oxaspiro[4.5]dec-3-en-2-one]	874
Cc1ccc(-c2ccc(Cl)cc2)cc1C1=C(O)C2(CCOCC2)OC1=O [2-37, 3-(4′-chloro-4-methylbiphenyl-3-yl)-4-hydroxy-1,8-dioxaspiro[4.5]dec-3-en-2-one]	1050
Cc1ccc(-c2ccc(Cl)cc2)cc1C1=C(O)C(C)(C2CCCCC2)OC1=O (stereo not drawn) [2-40, 3-(4′-chloro-4-methylbiphenyl-3-yl)-5-cyclohexyl-4-hydroxy-5-methylfuran-2(5H)-one]	1510
Cc1ccc(-c2ccc(Cl)cc2)cc1C1=C(O)CC(C)CC1=O (stereo not drawn) [7-1, 2-(4′-chloro-4-methylbiphenyl-3-yl)-3-hydroxy-5-methylcyclohex-2-en-1-one]	932
Cc1ccc(-c2ccc(F)cc2)c(C)c1C1C(=O)N2CCCCN2C1=O [8-1, 2-(4′-fluoro-2,4-dimethylbiphenyl-3-yl)tetrahydro-1H-pyrazolo[1,2-a]pyridazine-1,3(2H)-dione]	3560
Cc1ccc(-c2ccc(F)cc2)c(C)c1C1C(=O)N2CCOCCN2C1=O [8-7, 8-(4′-fluoro-2,4-dimethylbiphenyl-3-yl)tetrahydro-7H-pyrazolo[1,2-d][1,4,5]oxadiazepine-7,9(8H)-dione]	6210
O=C1C(c2cc(-c3ccc(Cl)cc3Cl)ccc2Cl)C(=O)N2CCOCCN12 [8-9, 8-(2′,4,4′-trichlorobiphenyl-3-yl)tetrahydro-7H-pyrazolo[1,2-d][1,4,5]oxadiazepine-7,9(8H)-dione]	682
O=C1C(c2cc(-c3ccc(Cl)c(Cl)c3)ccc2Cl)C(=O)N2CCOCCN12 [8-10, 8-(3′,4,4′-trichlorobiphenyl-3-yl)tetrahydro-7H-pyrazolo[1,2-d][1,4,5]oxadiazepine-7,9(8H)-dione]	2350
O=C1C(c2cc(-c3ccc(F)cc3F)ccc2Cl)C(=O)N2CCOCCN12 [8-11, 8-(4-chloro-2′,4′-difluorobiphenyl-3-yl)tetrahydro-7H-pyrazolo[1,2-d][1,4,5]oxadiazepine-7,9(8H)-dione]	1360
Cc1ccc(-c2ccc(Cl)cc2)cc1C1C(=O)N2C3CCC(C3)N2C1=O (stereo not drawn) [8-16, 2-(4′-chloro-4-methylbiphenyl-3-yl)tetrahydro-1H-5,8-methanopyrazolo[1,2-a]pyridazine-1,3(2H)-dione]	593

Same assay, conditions: Assay B1, ADP-Glo; read-out: ACC 1 (=B1) IC50

SMILES	IC50 [nM]
COC1CCC2(CC1)OC(=O)C(c1cc(-c3ccccc3Cl)ccc1C)=C2O (stereo not drawn) [2-7, 3-(2′-chloro-4-methylbiphenyl-3-yl)-4-hydroxy-8-methoxy-1-oxaspiro[4.5]dec-3-en-2-one]	2710
Cc1ccc(-c2ccc(Cl)cc2)cc1C1=C(O)C2(CC2)OC1=O [2-8, 6-(4′-chloro-4-methylbiphenyl-3-yl)-7-hydroxy-4-oxaspiro[2.4]hept-6-en-5-one]	1990
Cc1ccc(-c2ccc(F)c(F)c2)cc1C1=C(O)C2(CCCC2)OC1=O [2-22, 3-(3′,4′-difluoro-4-methylbiphenyl-3-yl)-4-hydroxy-1-oxaspiro[4.4]non-3-en-2-one]	2230
Cc1ccc(-c2ccc(F)c(Cl)c2)cc1C1=C(O)C2(CCCC2)OC1=O [2-23, 3-(3′-chloro-4′-fluoro-4-methylbiphenyl-3-yl)-4-hydroxy-1-oxaspiro[4.4]non-3-en-2-one]	2090
O=C1OC2(CCCC2)C(O)=C1c1cc(-c2cc(F)c(F)c(F)c2)ccc1Cl [2-24, 3-(4-chloro-3′,4′,5′-trifluorobiphenyl-3-yl)-4-hydroxy-1-oxaspiro[4.4]non-3-en-2-one]	2090
O=C1OC2(CCCCC2)C(O)=C1c1cc(-c2ccc(F)c(F)c2)ccc1Cl [2-25, 3-(4-chloro-3′,4′-difluorobiphenyl-3-yl)-4-hydroxy-1-oxaspiro[4.5]dec-3-en-2-one]	1200
Cc1ccc(-c2ccc(Cl)cc2)cc1C1=C(O)C(C(C)(C)C)OC1=O (stereo not drawn) [2-35, 5-tert-butyl-3-(4′-chloro-4-methylbiphenyl-3-yl)-4-hydroxyfuran-2(5H)-one]	1190

Same assay, conditions: Assay B1; read-out: ACC 1 (=B1) IC50

SMILES	IC50 [nM]
Cc1ccc(-c2ccc(C)c(C3=C(O)C4(CCOCC4)NC3=O)c2)cc1 [1-15, 3-(4,4′-dimethylbiphenyl-3-yl)-4-hydroxy-8-oxa-1-azaspiro[4.5]dec-3-en-2-one]	522
Cc1ccc(-c2ccc(Cl)cc2)cc1C1=C(O)CN(CC(C)C)C1=O [1-27, 3-(4′-chloro-4-methylbiphenyl-3-yl)-4-hydroxy-1-(2-methylpropyl)-1,5-dihydro-2H-pyrrol-2-one]	1940
Cc1ccc(-c2ccc(F)c(F)c2)cc1C1=C(O)C2(CCOCC2)NC1=O [1-37, 3-(3′,4′-difluoro-4-methylbiphenyl-3-yl)-4-hydroxy-8-oxa-1-azaspiro[4.5]dec-3-en-2-one]	850
O=C1NC2(CCOCC2)C(O)=C1c1cc(-c2cc(F)c(F)c(F)c2)ccc1Cl [1-38, 3-(4-chloro-3′,4′,5′-trifluorobiphenyl-3-yl)-4-hydroxy-8-oxa-1-azaspiro[4.5]dec-3-en-2-one]	747
Cc1ccc(-c2ccc(Cl)c(C3=C(O)C4(CCOCC4)NC3=O)c2)cc1F [1-39, 3-(4-chloro-3′-fluoro-4′-methylbiphenyl-3-yl)-4-hydroxy-8-oxa-1-azaspiro[4.5]dec-3-en-2-one]	1980
O=C1NC2(CCOCC2)C(O)=C1c1cc(-c2ccc(F)cc2)ccc1Cl [1-41, 3-(4-chloro-4′-fluorobiphenyl-3-yl)-4-hydroxy-8-oxa-1-azaspiro[4.5]dec-3-en-2-one]	1140
COCCC1(C)NC(=O)C(c2cc(-c3ccc(Cl)cc3)ccc2C)=C1O (stereo not drawn) [1-47, 3-(4′-chloro-4-methylbiphenyl-3-yl)-4-hydroxy-5-(2-methoxyethyl)-5-methyl-1,5-dihydro-2H-pyrrol-2-one]	3190
Cc1ccc(-c2ccc(Cl)cc2)cc1C1C(=O)N2CCCCN2C1=O [8-3, 2-(4′-chloro-4-methylbiphenyl-3-yl)tetrahydro-1H-pyrazolo[1,2-a]pyridazine-1,3(2H)-dione]	1050
O=C1C(c2cc(-c3ccc(F)c(Cl)c3)ccc2Cl)C(=O)N2CCCCN12 [8-4, 2-(3′,4-dichloro-4′-fluorobiphenyl-3-yl)tetrahydro-1H-pyrazolo[1,2-a]pyridazine-1,3(2H)-dione]	3920
Cc1ccc(-c2ccc(F)cc2F)cc1C1C(=O)N2CCOCCN2C1=O [8-5, 8-(2′,4′-difluoro-4-methylbiphenyl-3-yl)tetrahydro-7H-pyrazolo[1,2-d][1,4,5]oxadiazepine-7,9(8H)-dione]	6940
Cc1ccc(-c2ccc(Cl)cc2)cc1C1C(=O)N2CCOCCN2C1=O [8-6, 8-(4′-chloro-4-methylbiphenyl-3-yl)tetrahydro-7H-pyrazolo[1,2-d][1,4,5]oxadiazepine-7,9(8H)-dione]	1280
Cc1ccc(-c2ccc(Cl)cc2)cc1C1C(=O)N2CC(C)(F)CN2C1=O [8-12, 2-(4′-chloro-4-methylbiphenyl-3-yl)-6-fluoro-6-methyldihydro-1H,5H-pyrazolo[1,2-a]pyrazole-1,3(2H)-dione]	783
CC1(F)CN2C(=O)C(c3cc(-c4ccc(Cl)cc4)ccc3Cl)C(=O)N2C1 [8-13, 2-(4,4′-dichlorobiphenyl-3-yl)-6-fluoro-6-methyldihydro-1H,5H-pyrazolo[1,2-a]pyrazole-1,3(2H)-dione]	1360
Cc1ccc(-c2ccc(Cl)cc2)cc1C1C(=O)N(C)N(C)C1=O [8-14, 4-(4′-chloro-4-methylbiphenyl-3-yl)-1,2-dimethyl-1H-pyrazole-3,5(2H,4H)-dione]	7460
CN1C(=O)C(c2cc(-c3ccc(Cl)cc3)ccc2Cl)C(=O)N1C [8-15, 4-(4,4′-dichlorobiphenyl-3-yl)-1,2-dimethyl-1H-pyrazole-3,5(2H,4H)-dione]	5600
O=C1C(c2cc(-c3ccc(Cl)cc3)ccc2Cl)C(=O)N2C3CCC(C3)N12 (stereo not drawn) [8-17, 2-(4,4′-dichlorobiphenyl-3-yl)tetrahydro-1H-5,8-methanopyrazolo[1,2-a]pyridazine-1,3(2H)-dione]	1450
